Reference: patent US11712443B2, “17α-monoesters and 17α,21-diesters of cortexolone for use in the treatment of tumors” (COSMO TECHNOLOGIES LTD., priority 2014, dated 2023)
Like-named read-outs stand apart in the source and are kept apart here.

Tests used:
HT29 [1] = assay: In vitro proliferation, larger cancer cell line panel; conditions: HT29
PC3 = assay: ATP-dependent proliferation/viability assay (Cell Titer Glo), 3 days; conditions: PC3
Protocol: (§1) The experiment was performed to test and to define the antitumor activity in vitro of cortexolone 17α-benzoate on LNCaP (AR+) and PC3 (AR^−), representative of Prostatic cancer cell lines with Androgen Receptor (AR) positive or negative expression, respectively. The experimental method consisted of: • 1. […] After 24 hours, 10 nM DHT (dihydrotestosterone) with or without anti-androgen compounds, or DMSO vehicle (negative control) was added to the cultures. • 3.
(§2) The experiment was performed to test and to define antitumor activity in vitro of cortexolone 17α-valerate-21-propionate (CB-03-10) on LNCaP (AR+) and PC3 (AR^−), representative of Prostatic cancer cell lines with AR positive or negative expression, respectively. The experimental method consisted of: • 1. […] After 24 hours, 10 nM DHT (dihydrotestosterone) with or without anti-androgen compounds, or DMSO vehicle (negative control) was added to the cultures. • 3.

LNCaP = assay: as above; conditions: LNCaP
Protocol: as §1, §2

stimulated PBMC = assay: IC50 on stimulated PBMC (actively dividing cells)
Protocol: (§3) The IC^50 in PBMC were tested in 2 different activation status:
stimulated—actively dividing cells
(§4) IC50 of the compounds was determined on fresh cells isolated from human blood (PBMC). The compounds toxicity was determined as follow: Therapeutic Index=Safety/Potency=IC50 stimulated PBMC_/IC50 cancer cell

HT29 [2] = assay: MTT colorimetric assay, 72 h; type: cell-based; conditions: for Inhibition (%) on HT29: 72 h, MTT; for Therapeutic Index (TI), Resting PBMC: IC50 resting PBMC / IC50 HT29; for Therapeutic Index (TI), Stimulated PBMC: IC50 stimulated PBMC / IC50 HT29
Protocol: The experiment was performed to test and define anticancer activity in vitro of Cortexolone 17α-benzoate and cortexolone 17α-valerate-21-propionate on cell lines representatives of epithelial intestinal tumors, namely HT29. The experiment method consisted in: • 1. Monolayer HT-29 cells were plated in: 96-wells plates at the density of 2×10^4 cells/mL. The cells plated were kept at 37° C. in 5% CO2 and left to attach for 24 h. • 2. […] After 72 h of treatment, the MTT colorimetric assay was performed.

resting PBMC = assay: IC50 on resting PBMC (quiescent, non-dividing cells); type: cell-based, human
Protocol: The ratio from IC50 of the compounds on peripheral blood mononuclear cells (PBMC) and the IC50 on cancer cell lines constitute the Therapeutic Index and show what is the safer compound to be tested.
as §3
resting—quiescent, non-dividing cells
as §4

[3] = test system: MiaPaca-2 pancreatic tumor xenograft; assay: Human pancreatic tumor xenograft in nude mice, subcutaneous treatment; type: in vivo
Protocol: The test was carried out comparing the anti-tumor activity of cortexolone 17α-benzoate at two different dosages (8.0 mg/kg, corresponding approximately at 230 μM, and 40 mg/kg, corresponding approximately at 1150 μM), versus the vehicle (i.e. 0.4% (v/v) tween 80 and 0.5% (w/v) carboxymethylcellulose in normal saline) and versus the comparator Cyproterone Acetate at two different dosages (7.4 mg/kg and 37 mg/kg).
1×10^6 MiaPaca-2 cells suspended in matrigel were subcutaneously injected into 6 week old athymic nude mice.
The treatment with the tested compounds, with the vehicle and with the comparative compound, was initiated after the tumor volume has reached 50 mm3 after transplantation. All compounds were injected 100 μL/mouse subcutaneously of low dose solution (approximately 230 μM) or 100 μL/mouse of high dose solution (approximately 1150 μM) of cortexolone 17α-benzoate, vehicle and cyproterone acetate, respectively. Compounds and controls were administered subcutaneously daily for 28 days.
Tumors were measured every 4 days with a digital caliper.
The results are plotted in FIG. 1 as average change in tumor volume relative to the start of treatment. Tumor volume was calculated according to the formula 0.5236(r1)^2(r2) where r1<r2.
The test was carried out comparing the anti-tumor activity of cortexolone 17α-valerate-21-propionate (CB-03-10) at two different dosages (approximately 8.6 mg/kg and 43 mg/kg) versus the vehicle (i.e. 0.4% (v/v) tween 80 and 0.5% (w/v) carboxymethylcellulose in normal saline) and versus the comparator Cyproterone Acetate at two different dosages (7.4 mg/kg and 37 mg/kg).
The treatment with the tested compound, with the vehicle and with the comparative compound was initiated after the tumor has reached a volume of 50 mm3 after implantation, injecting subcutaneously 100 μL/mouse of low dose solution (approximately 230 μM) or 100 μL/mouse of high dose solution (approximately 1150 μM) of cortexolone 17α-valerate-21-propionate (CB-03-10), vehicle and cyproterone acetate, respectively. Compounds and controls were administered subcutaneously daily for 28 days.
The results are plotted in FIG. 2 as average change in tumor volume relative to the start of treatment. Tumor volume was calculated according to the formula 0.5236(r1)^2(r2) where r1<r2.
CPA a well-known anti-androgen was used as control. Briefly 1×10^6 MiaPaca2 cells suspended in matrigel were subcutaneously (SC) injected into 6 week old male athymic nude mice. Tumors were measured every 4 days with a digital caliper. Tumor volume was calculated according to the formula: 0.5236(r1)2(r2) where r1<r2. Treatment with CB-03-10 and controls compounds was initiated after the tumor had reached 50 mm3. Compounds diluted in DMSO/2-hydroxypropyl b-cyclodextrin (vehicle) were injected subcutaneously (SC) daily (100 μL/mouse) at the concentration of 40 mg/Kg daily for 28 consecutive days.

BxPC3 = assay: In vitro proliferation, larger cancer cell line panel
MCF7 = assay: In vitro proliferation / cytotoxic assay on breast cancer cells (cell titer glo); conditions: MCF7
Protocol: For the cytotoxic assay: cells seeded in 96 well flat bottom culture plates in media containing charcoal stripped serum. After 24 hours test compounds were added to the cells. DMSO was used as the vehicle negative control and RU486 as the positive control. After 72 hours incubation cell were harvested, lysed and viability determined using the cell titer glow assay for viability.

MiaPaca2 = assay: ATP-dependent proliferation/viability assay (Cell Titer Glo), 3 days; conditions: for TI on Resting PBMC: IC50 resting PBMC / IC50 MiaPaca2; for TI on Stimulated PBMC: IC50 stimulated PBMC / IC50 MiaPaca2
Panc1 = assay: as above; conditions: for TI on Resting PBMC: IC50 resting PBMC / IC50 Panc1; for TI on Stimulated PBMC: IC50 stimulated PBMC / IC50 Panc1
[4] = Experiment 1, 0 = higher toxicity in PBMC

**Q.** Which “Therapeutic Index = IC50 resting PBMC/IC50 cancer cell” value (HT29 [1]; Table IV) does the source give for C[C@]12CCC(=O)C=C1CC[C@@H]1[C@@H]2CC[C@@]2(C)[C@H]1CC[C@]2(OC(=O)c1ccccc1)C(=O)CO [CB-03-06, cortexolone 17α-benzoate] here?
**A.** Its value is 6.

**Q.** What about the “Therapeutic Index = IC50 stimulated PBMC/IC50 cancer cell” value (HT29 [1]; Table VII) of the same molecule?
**A.** The value was 6.

**Q.** What about the IC50 (HT29 [1]; read-out: In vitro proliferation IC50, Table IV) of the same molecule?
**A.** The IC50 was 10 µM.

**Q.** What about the “Therapeutic Index = IC50 resting PBMC/IC50 cancer cell” value (PC3; Table IV) of the same molecule?
**A.** Its value is 3.

**Q.** And the “Therapeutic Index = IC50 stimulated PBMC/IC50 cancer cell” value (PC3; Table VII)?
**A.** Its value is 3.

**Q.** And the “Therapeutic Index = IC50 resting PBMC/IC50 cancer cell” value (LNCaP; Table IV)?
**A.** Its value is 8.

**Q.** And the “Therapeutic Index = IC50 stimulated PBMC/IC50 cancer cell” value (LNCaP; Table VII)?
**A.** Its value is 8.

**Q.** And the “Therapeutic Index = IC50 resting PBMC/IC50 cancer cell” value (stimulated PBMC; PBMC Stim, healthy lymphocyte, Table IV)?
**A.** The value was 1.

**Q.** What about the “Therapeutic Index = IC50 stimulated PBMC/IC50 cancer cell, AVERAGE” value (stimulated PBMC; average across the 7 cancer cell lines, Table VII) of the same molecule?
**A.** Its value is 5.

**Q.** What about the IC50 (stimulated PBMC; read-out: IC50 on Stimulated PBMC, Example 7 Experiment 1) of the same molecule?
**A.** The IC50 was 113 µM.

**Q.** And the IC50 (stimulated PBMC; read-out: IC50 on Stimulated PBMC, Example 7 Experiment 2)?
**A.** Its IC50 is 97 µM.

**Q.** And the IC50 (stimulated PBMC; read-out: In vitro proliferation IC50, PBMC STIMULATED, healthy lymphocyte, Table IV)?
**A.** The IC50 was 97 µM.

**Q.** And the “Inhibition (%) on HT29” value (HT29 [2]; 0.8 micromolar)?
**A.** The value was −1.55%.

**Q.** And the “Inhibition (%) on HT29” value (HT29 [2]; 4 micromolar)?
**A.** The value was 20.40%.

**Q.** What about the “Inhibition (%) on HT29” value (HT29 [2]; 20 micromolar) of the same molecule?
**A.** The value was 53.60%.

**Q.** What about the “Inhibition (%) on HT29” value (HT29 [2]; 100 micromolar) of the same molecule?
**A.** Its value is 92.24%.

**Q.** What about the “Inhibition (%) on HT29” value (HT29 [2]; 500 micromolar) of the same molecule?
**A.** Its value is 92.31%.

**Q.** What about the “Therapeutic Index (TI), Resting PBMC” value (HT29 [2]; Example 9 Experiment 1) of the same molecule?
**A.** Its value is 6.

**Q.** And the “Therapeutic Index (TI), Resting PBMC” value (HT29 [2]; Example 9 Experiment 2)?
**A.** Its value is 5.

**Q.** What about the “Therapeutic Index (TI), Stimulated PBMC” value (HT29 [2]; Example 9 Experiment 1) of the same molecule?
**A.** The value was 7.

**Q.** And the “Therapeutic Index (TI), Stimulated PBMC” value (HT29 [2]; Example 9 Experiment 2)?
**A.** Its value is 6.

**Q.** What about the IC50 (resting PBMC; Example 7 Experiment 1) of the same molecule?
**A.** The IC50 was 100 µM.

**Q.** What about the IC50 (resting PBMC; Example 7 Experiment 2) of the same molecule?
**A.** The IC50 was 85 µM.

**Q.** And the “pancreatic tumor size increase relative to size when treatment was initiated” value ([3]; Example 5, high dose 40 mg/kg (approximately 1150 μM, 100 μL/mouse) SC daily 28 days)?
**A.** The value was “less than 5 fold”.

**Q.** What about the “in vivo antitumor activity compared with Cyproterone Acetate” value ([3]; Examples 5 and 6, FIG. 3, same animal model) of the same molecule?
**A.** Its value is “antitumor activity higher than Cyproterone Acetate”.

**Q.** What about the “Therapeutic Index = IC50 resting PBMC/IC50 cancer cell” value (BxPC3; Table IV) of the same molecule?
**A.** Its value is 3.

**Q.** And the “Therapeutic Index = IC50 stimulated PBMC/IC50 cancer cell” value (BxPC3; Table VII)?
**A.** Its value is 3.

**Q.** What about the “Therapeutic Index = IC50 resting PBMC/IC50 cancer cell” value (MCF7; Table IV) of the same molecule?
**A.** The value was 4.

**Q.** And the “Therapeutic Index = IC50 stimulated PBMC/IC50 cancer cell” value (MCF7; Table VII)?
**A.** Its value is 4.

**Q.** And the “TI on Resting PBMC” value (MiaPaca2; [4])?
**A.** The value was 6.

**Q.** And the “TI on Resting PBMC” value (MiaPaca2; Experiment 2)?
**A.** The value was 4.

**Q.** What about the “TI on Stimulated PBMC” value (MiaPaca2; [4]) of the same molecule?
**A.** The value was 7.

**Q.** What about the “TI on Stimulated PBMC” value (MiaPaca2; Experiment 2) of the same molecule?
**A.** Its value is 5.

**Q.** And the “Therapeutic Index = IC50 resting PBMC/IC50 cancer cell” value (MiaPaca2; MiaPaca2, Table IV)?
**A.** The value was 5.

**Q.** What about the “Therapeutic Index = IC50 stimulated PBMC/IC50 cancer cell” value (MiaPaca2; MiaPaca2, Table VII) of the same molecule?
**A.** Its value is 5.

**Q.** And the “TI on Resting PBMC” value (Panc1; [4])?
**A.** Its value is 4.

**Q.** And the “TI on Resting PBMC” value (Panc1; Experiment 2)?
**A.** The value was 3.

**Q.** And the “TI on Stimulated PBMC” value (Panc1; Experiment 1, 0 = higher toxicity in PBMC than in the cancer cell lines)?
**A.** The value was 5.

**Q.** And the “TI on Stimulated PBMC” value (Panc1; Experiment 2)?
**A.** Its value is 3.

**Q.** What about the “Therapeutic Index = IC50 resting PBMC/IC50 cancer cell” value (Panc1; Panc1, Table IV) of the same molecule?
**A.** Its value is 3.

**Q.** And the “Therapeutic Index = IC50 stimulated PBMC/IC50 cancer cell” value (Panc1; Panc1, Table VII)?
**A.** Its value is 3.
